The text below walks through data of patent US20200123127A1, “REMOVAL OF SENESCENCE-ASSOCIATED MACROPHAGES” (EVERON BIOSCIENCES, INC., priority 2016, published 2020).

The test system of assay [1] is human neonatal dermal fibroblasts (NDF). Nature of the assay: Resazurin viability assay, senescent vs proliferating/quiescent human neonatal dermal fibroblasts. Conditions: Homo sapiens, Fibroblast, 72 h, 72 hour exposure, resazurin. It counts as cell-based. As for the experimental part:
FIG. 2. Compound A1.1 selectively kills senescent human neonatal dermal fibroblasts (NDF) cells in a dose- and time-dependent manner. (FIG. 2A) Normal proliferating and quiescent NDF cells, and the cells made senescent via exposure to genotoxic agents (doxorubicin, bleomycin and gamma-irradiation) were incubated with increasing concentrations of A1.1. At 72 hours post-treatment cell viability was measured via resazurin viability assay. (FIG. 2B) Compound A1.1 selectively kills senescent NDF cells in time-dependent manner discriminating between acute genotoxic stress and senescence. Acutely damaged NDF cells were irradiated with 4 Gy gamma-irradiation 24 hours before A1.1 treatment. Senescent NDF cells were treated with bleomycin or irradiated with 15 Gy and incubated for 14 days to induce senescence before treatment with A1.1. Proliferating acutely damaged and senescent NDF cell were treated with 1.875-30 μM A1.1 and viable cells were measured at 72 hours after treatment. Average and standard deviation are shown.
Normal proliferating and quiescent NDF cells, and the cells made senescent via exposure to genotoxic agents (doxorubicin, bleomycin and gamma-irradiation) were incubated with increasing concentrations of A1.1. At 72 hours post-treatment cell viability was measured via resazurin viability assay.
A1.1 selectively kills senescent human neonatal dermal fibroblasts (NDF) cells in time-dependent manner discriminating between acute genotoxic stress and senescence ([…]). Acutely damaged NDF cells were irradiated with 4 Gy gamma-irradiation 24 hours before A1.1 treatment. Senescent NDF cells were treated with bleomycin or irradiated with 15 Gy and incubated for 14 days to induce senescence before treatment with A1.1.
(§1) Cytotoxicity of A1.1 analogs against bleomycin-induced senescent human NDFs and rat dermal fibroblasts (RDFs). Activity of analogs was assessed from dose-response curves against irradiation- or bleomycin-induced senescent and proliferating cells to calculate IC50s (uM). The fold difference of proliferating versus senescent cell IC50s was used to assess the level of specific anti-senescent activity of the compounds.
(§2) For generation senescent human neonatal dermal fibroblasts (NDFs) and adult rat dermal fibroblasts (RDFs), cells are treated at ˜10 ug/ml bleomycin for 3 days (for bleomycin-induced senescence) or irradiated once at 20 Gy using a gamma irradiator (Cs source), followed by at least 7 day recovery in fresh medium for induction of senescence. Senescent and non-senescent (proliferating) cells for each cell line are plated into 384-w plate, followed by 72 hour exposure to a dose titration of compounds. Viability measurements are estimated using the resazurin viability assay. Using GraphPad Prism 5, the IC50 values are calculated from the non-linear regression of log-transformed compound concentrations versus dose-response normalized to background and non-treated controls.
A general note: Resazurin is reduced to fluorescent resorufin, in cell work by metabolically active cells.

For assay [2], the system named is adult rat dermal fibroblasts (RDF). As to the kind of experiment: Resazurin viability assay, senescent vs proliferating rat dermal fibroblasts. Particulars: Rattus norvegicus, Fibroblast, 72 hour exposure, resazurin. Format: cell-based. As for the experimental part: as §1, §2
For assay [3], the system named is RWPE-1 normal prostate epithelial cells. As to the kind of experiment: dnPTEN-induced senescence model in RWPE-1 cells (SA-beta-Gal and methylene blue staining). It counts as cell-based. Conditions: 10 uM for 72 hours. As for the experimental part: FIG. 3. Activity of A1.1 and analog A1.12 in a model of dnPTEN-induced senescence in RWPE-1 normal prostate epithelial cells. A population of transduced RWPE-1 cells containing doxycycline-inducible dnPTEN was senesced via 1 ug/ml doxycycline for 7 days. Cells which bypass senescence continued to proliferate to form a confluent monolayer. The mixed population of senescent and proliferating cells was treated with A1.1 and A1.12 at 10 uM for 72 hours. SA-beta-Gal staining was used to monitor the amount of senescent cells of treatment groups compared to non-treated control. In addition, methylene blue was used to quantitate overall cell mass, which was comprised mostly of the non-senescent, proliferating cells. Treatment with the anti-senescent compounds led to a substantial decrease in SA-beta-Gal staining, while the amount of methylene blue staining was less affected.
Senescent cells are strongly associated with benign prostate hyperplasia (BPH) and the development of prostate cancer [Vital, P. et al. (2014) The Senescence-Associated Secretory Phenotype Promotes Benign Prostatic Hyperplasia. Am J Pathol, 184(3): 721-731; Burton, D. et al. (2013). Androgen Deprivation-Induced Senescence Promoted Outgrowth of Anderogen-Refractory Protstate Cancer Cells. PLOS One, 8(6):e68003]. […] We sought to evaluate the efficacy of our compounds in a model of RWPE-1 normal prostate epithelial cells transduced with a construct for inducible loss of PTEN function [doxycycline-inducible expression of a dominant-negative PTEN (dnPTEN) mutant]. In the presence of doxycycline, a fraction of the population of transduced cells became senescent, while cells bypassing senescence continued to grow until a confluent monolayer was formed.

In assay [4] the test system is B16 melanoma lung metastasis in C57BL/6 mice. As to the kind of experiment: Senescence-enhanced B16 lung metastasis model. Particulars: 20 mg/kg intraperitoneally once a day for 5 consecutive days; irradiated (11 Gy) C57BL/6 mice. Format: in vivo, mouse. The source says:
FIG. 4. Efficacy of A1.1 analogs in the senescence-enhanced B16 metastasis model. (A) Quantification of metastatic nodules by H&E morphometric analysis, and the resulting reduction in tumor burden (%) compared to vehicle control. (B) Quantitation morphometric analysis of lungs excised from irradiated mice treated with analogs of A1.1 post-inoculation of B16 cell intravenously, along with quantitation of morphometric analysis, are provided. (C) In vitro testing of A1.1 and analogs against the growth and viability of B16 cells, as assessed by the resazurin viability assay after 72 hour exposure to compounds compared to non-treated controls.
The role of senescent cells in the promotion of metastatic potential of cancer cells has also been described [Patent WO 2013090645 A1; Campisi, J. (2015). Cancer and Aging: Rival Demons]. […] To test the efficacy of A1.1, irradiated (11 Gy followed by bone-marrow transplantation) and non-irradiated C57BL/6 mice received B16 melanoma cells via tail vein injection were subsequently (72 hours later) administered A1.1 (20 mg/kg) intraperitoneally once a day for 5 consecutive days.
Synthesized analogs were also tested in vivo, to assess whether optimized structures are capable of showing activity against senescence-mediated B16 lung metastasis in irradiated mice (FIG. 4B). Analogs A1.1, A1.12, A1.13, A1.14, A1.15, and A1.6 were administered at 20 mg/kg intraperitoneally for 5 consecutive days. In addition to A1.1, treatment with analogs A1.12, A1.14 and A1.15 at 20 mg/kg reduced the metastatic burden in the lungs of irradiated mice by more than 2-fold.

Read-outs that look alike come from different tables or passages of the source.

For `CCNC(=O)c1sc(SCc2ccccc2)c2c1CC(c1ccc(OC)cc1)C/C2=N\O` (stereo not shown) [Example A1.12], the IC50 (in general, the concentration at which inhibition is half-maximal) in assay [1] (proliferating NDF, read-out: IC50 NDFprolif) was below 10 µM; in assay [1] (senescent NDF, bleomycin-induced, read-out: IC50 NDFsen.bleo), below 5 µM; in assay [2] (proliferating RDF, read-out: IC50 RDFprolif), below 10 µM; in assay [2] (senescent RDF, bleomycin-induced, read-out: IC50 RDFsen.bleo), below 5 µM. Moreover, the “proliferating cells / overall cell mass (methylene blue staining)” value in assay [3] is “little effect against proliferating cells”. Moreover, the “senescent cells (number of SA-β-Gal-positive cells)” value in assay [3] (dnPTEN-induced senescence) is “selective elimination of senescent cells”.

As for `COc1ccc(C2C/C(=N\O)c3c(SCc4ccccc4)sc(C(=O)N4CCOCC4)c3C2)cc1` (stereo not shown) [Example A1.13, (3-(Benzylthio)-4-(hydroxyimino)-6-(4-methoxyphenyl)-4,5,6,7tetrahydrobenzo[c]thiophen-1-yl)(morpholino)methanone], the “reduction of B16 metastatic load in the lungs of irradiated mice vs vehicle” value in assay [4] is listed as “did not show a substantial decrease”.
